Reference: patent publication US8415383B2, “Substituted benzamidines as antibacterial agents” (Biota Scientific Management Pty Ltd, priority 2007, dated 2013)
Converted amounts (≈) assume the structure as drawn. Read-outs that look alike come from different tables or passages of the source.

Columns and labels:
[1] = test system: Staphylococcus aureus ATCC29213; experiment: Minimal Inhibitory Concentration (MIC) testing, broth microdilution or agar dilution (CLSI); assay type: cell-based
Description: Minimal Inhibitory Concentration (MIC) Testing
Compounds of this invention were tested for antimicrobial activity by susceptibility testing in liquid or on solid media. MICs for compounds against each strain were determined by the broth microdilution or agar dilution method according to the guidelines of the Clinical Laboratories and Standards Institute, formerly the National Committee for Clinical Laboratory Standards (Clinical Laboratories and Standards Institute. Methods for Dilution Antimicrobial Susceptibility Tests for Bacteria That Grow Aerobically; Approved Standard—Seventh Edition. Document M7-A7. CLSI, Wayne, Pa., 2006; Clinical Laboratories and Standards Institute.
Activities were scored as ‘A’ if the MIC was less than or equal to 0.125 micrograms/ml, ‘B’ if the MIC was 0.25 to 4 micrograms/ml and ‘C’ if the MIC was greater than 4 micrograms/ml.

[2] = Staphylococcus aureus ATCC29213, MIC scored as class, read-out: Staphylococcus aureus MICs Activity

Row | SMILES | MIC [1, 2] [µg/mL] | melting point [°C] | MIC ([1]; Staphylococcus aureus, ATCC29213, read-out: Staphylococcus aureus MICs Activity) [µg/mL]
1 | CC(=O)O/N=C(\N)c1c(F)ccc(OCc2nc(-c3ccc(Cl)cc3)ns2)c1F [Example 6] | 0.25 to 4 (≈ 0.57 to 9.11 µM) | – | –
2 | N=C(N)c1c(F)ccc(OCc2nc3cc(Cl)ccc3s2)c1F [Example 3, 3-[(5-Chloro-1,3-benzothiazol-2-yl)methoxy]-2,6-difluorobenzenecarboximidamide] | > 4 | – | –
3 | O=c1[nH]c(-c2c(F)ccc(OCc3nc(-c4ccc(Cl)cc4)no3)c2F)no1 [Example 4, 3-{3-[3-(4-Chloro-phenyl)-[1,2,4]oxadiazol-5-ylmethoxy]-2,6-difluorophenyl}-4H-[1,2,4]oxadiazol-5-one] | – | – | > 4
4 | CO/N=C(\N)c1c(F)ccc(OCc2nc3cc(Cl)ccc3s2)c1F [Example 2, 3-[(5-Chloro-1,3-benzothiazol-2-yl)methoxy]-2,6-difluoro-N′-methoxybenzenecarboximidamide] | 0.25 to 4 (≈ 0.651 to 10.4 µM) | – | –
5 | N/C(=N\O)c1c(F)ccc(OCc2nc3cc(Cl)ccc3s2)c1F [Example 1, 3-[(5-Chloro-1,3-benzothiazol-2-yl)methoxy]-2,6-difluoro-N′-hydroxybenzenecarboximidamide] | > 4 | 169 to 170 | –
6 | N/C(=N\O)c1c(F)ccc(OCc2nc(-c3ccc(Cl)cc3)ns2)c1F [Example 5, 3-[3-(4-Chlorophenyl)-[1,2,4]thiadiazol-5-ylmethoxy]-2,6-difluoro-N-hydroxybenzamidine] | < 0.125 | – | –

Continued, in another order:

Row | MIC [1, 2] [µg/mL] | melting point [°C] | SMILES | MIC ([1]; Staphylococcus aureus, ATCC29213, read-out: Staphylococcus aureus MICs Activity) [µg/mL]
7 | < 0.125 | – | COc1ncc(-c2csc(COc3ccc(F)c(/C(N)=N/O)c3F)n2)s1 [Example 9, 2,6-difluoro-N′-hydroxy-3-((2′-methoxy-4,5′-bithiazol-2-yl)methoxy) benzimidamide] | –
8 | > 4 | – | N=C(N)c1c(F)ccc(OCc2nc(-c3ccc(Cl)cc3)ns2)c1F [Example 7, 3-((3-(4-chlorophenyl)-1,2,4-thiadiazol-5-yl)methoxy)-2,6-difluorobenzimidamide] | –
9 | > 4 | – | CS(=O)(=O)/N=C(\N)c1c(F)ccc(OCc2nc(-c3ccc(Cl)cc3)ns2)c1F [Example 8] | –
